Where a SMILES comes first, the peptide text is derived from it. Bridges are numbered along the chain shown (N, C = ends). [ ]: non-standard residue; d: D form. The star is where a group is joined. Phe(3,4,5-F3) = N[C@@H](Cc1cc(F)c(F)c(F)c1)C(=O)O; Phe(4-COOH) = N[C@@H](Cc1ccc(C(=O)O)cc1)C(=O)O; Phe(2,4-Cl2) = N[C@@H](Cc1ccc(Cl)cc1Cl)C(=O)O; Bip = N[C@@H](Cc1ccc(-c2ccccc2)cc1)C(=O)O; Phe(3-Me) = Cc1cccc(C[C@H](N)C(=O)O)c1; Val(3-OH) = CC(C)(O)[C@H](N)C(=O)O; 4Pal = N[C@@H](Cc1ccncc1)C(=O)O; Aad = N[C@@H](CCCC(=O)O)C(=O)O; Cha = N[C@@H](CC1CCCCC1)C(=O)O; Cit = NC(=O)NCCC[C@H](N)C(=O)O; dCha = N[C@H](CC1CCCCC1)C(=O)O; Carboxymethyl = O=C(O)C*; Orn = NCCC[C@H](N)C(=O)O; Pra = C#CC[C@H](N)C(=O)O; Dab = NCC[C@H](N)C(=O)O; Nva = CCC[C@H](N)C(=O)O; Dap = NC[C@H](N)C(=O)O; Propargyl = C#CC*
The molecules below were run against T1, human PD-1 / PD-L1-Ig binding on Jurkat cell line over-expressing human PD-1 (Jurkat-PD-1) (Homo sapiens, UniProt Q15116) (assay: Jurkat-PD-1 Cell Binding High-Content Screening Assay (CBA)). Conditions: Jurkat-PD-1 cells, PE-labeled PD-L1-Ig 20 nM final; read-out: Jurkat HPD1_PDL1 IC50.
T1 construct: expressed in transfected cells; host or cells: Jurkat
Format: cell-based
In short: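 PE-PD-L1-Ig 20 nM final; cells in DMEM/10% FCS; cpd pre-incubation 2 h, 37° C; ligand 1 h; PFA fix + Hoechst 33342; high-content imaging read-out.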

T1 sequence (Q15116 25-288): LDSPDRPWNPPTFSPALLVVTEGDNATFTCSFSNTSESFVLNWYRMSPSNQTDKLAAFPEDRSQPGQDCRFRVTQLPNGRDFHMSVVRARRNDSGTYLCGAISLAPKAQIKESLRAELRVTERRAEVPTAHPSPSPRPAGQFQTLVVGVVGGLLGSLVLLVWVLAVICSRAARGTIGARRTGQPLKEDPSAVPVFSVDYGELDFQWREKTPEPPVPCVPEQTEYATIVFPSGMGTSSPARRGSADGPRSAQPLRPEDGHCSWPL

Going from `Cc1cccc(C[C@@H]2NC(=O)[C@H](CC(=O)O)NC(=O)[C@H](Cc3ccc(OCC(=O)O)cc3)NC(=O)[C@H]([C@@H](C)O)NC(=O)CSC[C@@H](C(N)=O)NC(=O)[C@H](CC(N)=O)NC(=O)[C@H](C(C)C)NC(=O)[C@H](CC3CCCCC3)NC(=O)[C@H](CCN)NC(=O)[C@@H](CC(C)C)NC(=O)[C@H](CCCN)NC(=O)[C@H](Cc3ccc(OCC(=O)O)cc3)NC(=O)[C@H](Cc3ccc(-c4ccccc4)cc3)NC(=O)[C@H](Cc3ccc(OCC(=O)O)cc3)NC2=O)c1` [Compound 1797] ({CH2CO}-TY(Carboxymethyl)D[Phe(3-Me)]Y(Carboxymethyl)[Bip]Y(Carboxymethyl)[Orn][dL][Dab][Cha]VNC-NH2; thioether N-14) to `COC[C@@H]1NC(=O)CSC[C@@H](C(=O)N[C@@H](CCN)C(N)=O)NC(=O)[C@H](CO)NC(=O)[C@H](C(C)(C)O)NC(=O)[C@H](CC2CCCCC2)NC(=O)[C@H](CCN)NC(=O)[C@@H](CC(C)C)NC(=O)[C@H](CCCN)NC(=O)[C@H](Cc2ccc(OCC(=O)O)cc2)NC(=O)[C@H](Cc2ccc(-c3ccccc3)cc2)NC(=O)[C@H](Cc2ccc(OCC(=O)O)cc2)NC(=O)[C@H](Cc2cccc(C)c2)NC(=O)[C@H](CC(=O)O)NC(=O)[C@H](Cc2ccc(C(=O)O)cc2)NC1=O` [Compound 2078] ({CH2CO}-S(Me)[Phe(4-COOH)]D[Phe(3-Me)]Y(Carboxymethyl)[Bip]Y(Carboxymethyl)[Orn][dL][Dab][Cha][Val(3-OH)]SC[Dab]-NH2; thioether N-14), the IC50 falls from 23.3 nM to 4.9 nM (4.8-fold). The second is the more potent here.

Compared with `Cc1cccc(C[C@@H]2NC(=O)[C@H](CC(=O)O)NC(=O)[C@H](Cc3ccc(C(=O)O)cc3)NC(=O)[C@H](Cc3ccc(OCC(=O)O)cc3)NC(=O)CSC[C@@H](C(=O)NCC(N)=O)NC(=O)[C@H](CO)NC(=O)[C@H](C(C)C)NC(=O)[C@H](CC(C)C)NC(=O)[C@H](CCN)NC(=O)[C@@H](CC(C)C)NC(=O)[C@H](CCCN)NC(=O)[C@H](C(C)C)NC(=O)[C@H](Cc3ccc(-c4ccccc4)cc3)NC(=O)[C@H](CC(C)C)NC2=O)c1` [Compound 1260] ({CH2CO}-Y(Carboxymethyl)[Phe(4-COOH)]D[Phe(3-Me)]L[Bip]V[Orn][dL][Dab]LVSCG-NH2; thioether N-14), `CC(C)C[C@H]1NC(=O)[C@H](CCCN)NC(=O)[C@H](CCC(=O)O)NC(=O)[C@H](Cc2ccc(-c3ccccc3)cc2)NC(=O)[C@H](C(C)C)NC(=O)[C@H](Cc2c[nH]c3ccccc23)NC(=O)[C@H](CC(=O)O)NC(=O)[C@H](Cc2ccc(OCC(=O)O)cc2)NC(=O)[C@H](CN)NC(=O)CSC[C@@H](C(=O)N[C@@H](C)C(N)=O)NC(=O)[C@H]([C@@H](C)O)NC(=O)[C@H](C(C)C)NC(=O)[C@H](Cc2ccc(Cl)cc2Cl)NC(=O)[C@H](CCN)NC1=O` [Compound 1478] ({CH2CO}-[Dap]Y(Carboxymethyl)DWV[Bip]E[Orn][dL][Dab][Phe(2,4-Cl2)]VTCA-NH2; thioether N-14) is 16-fold higher in IC50: 7.4 nM for the first, 120 nM for the second. The first is the more potent here.

Compared with `CC(C)[C@@H]1NC(=O)[C@H](Cc2c[nH]c3ccccc23)NC(=O)[C@H](CC(=O)O)NC(=O)[C@H](Cc2ccc(C(=O)O)cc2)NC(=O)[C@H](Cc2ccncc2)NC(=O)CSC[C@@H](C(=O)N[C@@H](C)C(N)=O)NC(=O)[C@H]([C@@H](C)O)NC(=O)[C@H](C(C)C)NC(=O)[C@H](CC2CCCCC2)NC(=O)[C@H](CCN)NC(=O)[C@@H](CC2CCCCC2)NC(=O)[C@H](CCCN)NC(=O)[C@H](C(C)C)NC(=O)[C@H](Cc2ccc(-c3ccccc3)cc2)NC1=O` [Compound 1632] ({CH2CO}-[4Pal][Phe(4-COOH)]DWV[Bip]V[Orn][dCha][Dab][Cha]VTCA-NH2; thioether N-14), `CCCC[C@H]1NC(=O)[C@H](CCCN)NC(=O)[C@H](C(C)C)NC(=O)[C@H](Cc2ccc(-c3ccccc3)cc2)NC(=O)[C@H](C(C)C)NC(=O)[C@H](Cc2c[nH]c3ccccc23)NC(=O)[C@H](CC(=O)O)NC(=O)[C@H](Cc2ccc(OCC(=O)O)cc2)NC(=O)[C@H](Cc2ccncc2)NC(=O)CSC[C@@H](C(=O)N[C@@H](C)C(N)=O)NC(=O)[C@H]([C@@H](C)O)NC(=O)[C@H](C(C)C)NC(=O)[C@H](CC2CCCCC2)NC(=O)[C@H](CCN)NC1=O` [Compound 1693] is 1.7-fold lower in IC50: 15.6 nM for the first, 9.1 nM for the second. The second is the more potent here.

Going from `CC(C)C[C@@H]1NC(=O)[C@H](Cc2c[nH]c3ccccc23)NC(=O)[C@H](CC(=O)O)NC(=O)[C@H](Cc2ccc(O)cc2)NC(=O)[C@H](Cc2ccccc2)NC(=O)CSC[C@@H](C(=O)N[C@@H](C)C(N)=O)NC(=O)[C@H]([C@@H](C)O)NC(=O)[C@H](C(C)C)NC(=O)[C@H](CC(C)C)NC(=O)[C@H](CC(N)=O)NC(=O)[C@@H](CC(C)C)NC(=O)[C@H](CCCN)NC(=O)[C@H](C(C)C)NC(=O)[C@H](Cc2ccc(-c3ccccc3)cc2)NC1=O` [Compound 1066] ({CH2CO}-FYDWL[Bip]V[Orn][dL]NLVTCA-NH2; thioether N-14) to `CC(C)C[C@@H]1NC(=O)[C@H](CCN)NC(=O)[C@@H](CC(C)C)NC(=O)[C@H](CCCN)NC(=O)[C@H](CCCNC(N)=O)NC(=O)[C@H](Cc2ccc(-c3ccccc3)cc2)NC(=O)[C@H](C(C)C)NC(=O)[C@H](Cc2c[nH]c3ccccc23)NC(=O)[C@H](CC(N)=O)NC(=O)[C@H](Cc2ccc(O)cc2)NC(=O)[C@H](CN)NC(=O)CSC[C@@H](C(=O)N[C@@H](C)C(N)=O)NC(=O)[C@H]([C@@H](C)O)NC(=O)[C@H](C(C)C)NC1=O` [Compound 1088] ({CH2CO}-[Dap]YNWV[Bip][Cit][Orn][dL][Dab]LVTCA-NH2; thioether N-14), the IC50 falls from 42.2 nM to 23.7 nM (1.8-fold). The second is the more potent here.

First: C#CCOc1ccc(C[C@@H]2NC(=O)[C@H](Cc3cccc(C)c3)NC(=O)[C@H](CC(=O)O)NC(=O)[C@H](Cc3ccc(C(=O)O)cc3)NC(=O)[C@H](CCC)NC(=O)CSC[C@@H](C(=O)N[C@@H](CCN)C(N)=O)NC(=O)[C@H](CCC(=O)O)NC(=O)[C@H](C(C)C)NC(=O)[C@H](CC3CCCCC3)NC(=O)[C@H](CCN)NC(=O)[C@@H](CC(C)C)NC(=O)[C@H](CCCN)NC(=O)[C@H](Cc3ccc(C(=O)O)cc3)NC(=O)[C@H](Cc3ccc(-c4ccccc4)cc3)NC2=O)cc1 [Compound 1830] ({CH2CO}-[Nva][Phe(4-COOH)]D[Phe(3-Me)]Y(Propargyl)[Bip][Phe(4-COOH)][Orn][dL][Dab][Cha]VEC[Dab]-NH2; thioether N-14)
Second: C#CC[C@H](NC(=O)[C@@H]1CSCC(=O)N[C@@H](CCN)C(=O)N[C@@H](Cc2ccc(C(=O)O)cc2)C(=O)N[C@@H](CC(=O)O)C(=O)N[C@@H](Cc2cccc(C)c2)C(=O)N[C@@H](Cc2ccc(C(=O)O)cc2)C(=O)N[C@@H](Cc2ccc(-c3ccccc3)cc2)C(=O)N[C@@H](Cc2ccc(C(=O)O)cc2)C(=O)N[C@@H](CCCN)C(=O)N[C@H](CC(C)C)C(=O)N[C@@H](CCN)C(=O)N[C@@H](CC2CCCCC2)C(=O)N[C@@H](C(C)(C)O)C(=O)N[C@@H](CO)C(=O)N1)C(=O)O [Compound 2704] ({CH2CO}-[Dab][Phe(4-COOH)]D[Phe(3-Me)][Phe(4-COOH)][Bip][Phe(4-COOH)][Orn][dL][Dab][Cha][Val(3-OH)]SC[Pra]-OH; thioether N-14)
The IC50 of the first is 88-fold lower: 3.6 nM for the first, 316 nM for the second.

`CC(C)C[C@H]1NC(=O)[C@H](CCCN)NC(=O)[C@H](CCCNC(N)=O)NC(=O)[C@H](Cc2ccc(-c3ccccc3)cc2)NC(=O)[C@H](C(C)C)NC(=O)[C@H](Cc2c[nH]c3ccccc23)NC(=O)[C@H](CC(=O)O)NC(=O)[C@H](CCCC(=O)O)NC(=O)[C@H](CN)NC(=O)CSC[C@@H](C(=O)N[C@@H](C)C(N)=O)NC(=O)[C@H]([C@@H](C)O)NC(=O)[C@H](C(C)C)NC(=O)[C@H](CC2CCCCC2)NC(=O)[C@H](CCN)NC1=O` [Compound 2125] ({CH2CO}-[Dap][Aad]DWV[Bip][Cit][Orn][dL][Dab][Cha]VTCA-NH2; thioether N-14) and `CC(C)C[C@H]1NC(=O)[C@H](CCCN)NC(=O)[C@H](CCCNC(N)=O)NC(=O)[C@H](Cc2ccc(-c3ccccc3)cc2)NC(=O)[C@H](C(C)C)NC(=O)[C@H](Cc2c[nH]c3ccccc23)NC(=O)[C@H](CC(=O)O)NC(=O)[C@H](Cc2cc(F)c(F)c(F)c2)NC(=O)[C@H](CN)NC(=O)CSC[C@@H](C(=O)N[C@@H](C)C(N)=O)NC(=O)[C@H]([C@@H](C)O)NC(=O)[C@H](C(C)C)NC(=O)[C@H](CC2CCCCC2)NC(=O)[C@H](CCN)NC1=O` [Compound 2127] ({CH2CO}-[Dap][Phe(3,4,5-F3)]DWV[Bip][Cit][Orn][dL][Dab][Cha]VTCA-NH2; thioether N-14) are within 1.5-fold of each other in IC50: 57.1 nM for the first, 47.4 nM for the second.

Going from `CC(C)C[C@H]1NC(=O)[C@H](CCCN)NC(=O)[C@H](CCC(=O)O)NC(=O)[C@H](Cc2ccc(-c3ccccc3)cc2)NC(=O)[C@H](C(C)C)NC(=O)[C@H](Cc2c[nH]c3ccccc23)NC(=O)[C@H](CC(=O)O)NC(=O)[C@H](Cc2ccc(OCC(=O)O)cc2)NC(=O)[C@H](CN)NC(=O)CSC[C@@H](C(=O)N[C@@H](C)C(N)=O)NC(=O)[C@H]([C@@H](C)O)NC(=O)[C@H](C(C)C)NC(=O)[C@H](Cc2cc(F)c(F)c(F)c2)NC(=O)[C@H](CCN)NC1=O` [Compound 1480] ({CH2CO}-[Dap]Y(Carboxymethyl)DWV[Bip]E[Orn][dL][Dab][Phe(3,4,5-F3)]VTCA-NH2; thioether N-14) to `CCC(C)[C@@H]1NC(=O)[C@H](Cc2ccc(-c3ccccc3)cc2)NC(=O)[C@H](C(C)C)NC(=O)[C@H](Cc2cccc(C)c2)NC(=O)[C@H](CC(=O)O)NC(=O)[C@H](Cc2cccnc2)NC(=O)[C@H](Cc2ccncc2)NC(=O)CSC[C@@H](C(=O)N[C@@H](C)C(N)=O)NC(=O)[C@H]([C@@H](C)O)NC(=O)[C@H](C(C)C)NC(=O)[C@H](CC2CCCCC2)NC(=O)[C@H](CCN)NC(=O)[C@@H](CC(C)C)NC(=O)[C@H](CCCN)NC1=O` (some centres unmarked) [Compound 2237], the IC50 falls from 150 nM to 22.8 nM (6.6-fold).

From patent US20250163104A1, “MACROCYCLIC IMMUNOMODULATORS” (priority 2021, published 2025)
